# Measurements published in patent US9827312B2, “Method for carrying therapeutic substances into cells” (MAGFORCE AG, priority 2005, dated 2017).
# What was measured:
# Conditions in all cases: procedure of example 2
# [1] = tested on: prostate carcinoma cell line DU 145; experiment: Increase in the activity of cytostatics with nanoparticles (Table 1), DU 145; assay type: cell-based
# Method: (§1) The experiments in vitro were carried out with the cell lines BT20 (breast carcinoma) and WiDr (colon carcinoma). The tumor cells were taken from tumor tissue of a patient and cultivated as described in DE 199 12 798 C1. 2×10^6 cells, respectively, were prepared in a 75 cm^3 cell culture bottle with 25 ml of cell culture medium (RPMI+10% FBS+1.2 ml of pyruvate for WiDr cells, or respectively BME+10% FBS+pyruvate+5 ml of non-essential amino acids+5 ml glutamine for BT20 cells) for testing the efficacy of the cefamandole/nanoparticle mixture. 136 μl of magnetic fluid MFL AS M01 (iron oxide nanoparticle coated with polycondensed N-(2-aminoethyl)-3-(trimethoxysilyl)propylamine, manufacturer: MagForce Nanotechnologies GmbH, Berlin, Germany) (cFe=2 mol/l) and 390 μl of cefamandole solution (stock solution 1 mg/ml in 0.9% NaCl) were added to said cell suspension.
# (§2) Corresponding to the experiment procedure according to example 2, the following […] were tested in vitro with the active ingredients listed in table 1: a) glioblastoma human cell line RUSIRS 1; b) breast carcinoma cell lines BT20; c) colon carcinoma cell line WiDR; d) bronchial carcinoma cells NSCLC, e) rectal carcinoma cells and f) prostate carcinoma cell line DU 145.
# (§3) In all cases, an increased activity of the cytostatic could be observed. The increase in activity is indicated in parentheses after the respective cytostatic, wherein (+) means an increase of about 5% to 80% and (++) means an increase of 80% to 500%.
# rectal carcinoma cells = experiment: Increase in the activity of cytostatics with nanoparticles (Table 1), rectal carcinoma; assay type: cell-based
# Method: as §1, §2, §3
# neuroglioma cell line H4 = experiment: Increase in the activity of cytostatics with nanoparticles (Table 1), H4; assay type: cell-based
# Method: as §1, §2, §3
# [2] = tested on: breast carcinoma cell lines BT20; experiment: Increase in the activity of cytostatics with nanoparticles (Table 1), BT20; assay type: cell-based, human
# Method: as §1, §2, §3
# [3] = tested on: colon carcinoma cell line WiDr; experiment: Increase in the activity of cytostatics with nanoparticles (Table 1), WiDr; assay type: cell-based, human
# Method: as §1, §2, §3
# [4] = tested on: glioblastoma human cell line RUSIRS1; experiment: Increase in the activity of cytostatics with nanoparticles (Table 1), RUSIRS1; assay type: cell-based
# Method: as §1, §2, §3
# [5] = tested on: bronchial carcinoma cells NSCLC; experiment: Increase in the activity of cytostatics with nanoparticles (Table 1), NSCLC; assay type: cell-based
# Method: as §1, §2, §3
Compound,increase in the activity of cytostatics [1],increase in the activity of cytostatics (rectal carcinoma cells),increase in the activity of cytostatics (neuroglioma cell line H4),increase in the activity of cytostatics [2],increase in the activity of cytostatics [3],increase in the activity of cytostatics [4],increase in the activity of cytostatics [5]
Nc1ccn([C@@H]2O[C@H](CO)[C@@H](O)C2(F)F)c(=O)n1 [gemcitabine],(+) ((+) means an increase of about 5% to 80%),(+) ((+) means an increase of about 5% to 80%),(+) ((+) means an increase of about 5% to 80%),(+) ((+) means an increase of about 5% to 80%),(+) ((+) means an increase of about 5% to 80%),(+) ((+) means an increase of about 5% to 80%),(++) ((++) means an increase of 80% to 500%)
CC(C)Cc1ccc(C(C)C(=O)O)cc1 (stereo not drawn) [ibuprofen],(+) ((+) means an increase of about 5% to 80%),(+) ((+) means an increase of about 5% to 80%),(+) ((+) means an increase of about 5% to 80%),(+) ((+) means an increase of about 5% to 80%),(++) ((++) means an increase of 80% to 500%),(+) ((+) means an increase of about 5% to 80%),(+) ((+) means an increase of about 5% to 80%)
CC(=O)[C@]1(O)Cc2c(O)c3c(c(O)c2[C@@H](O[C@H]2C[C@H](N)[C@H](O)[C@H](C)O2)C1)C(=O)c1ccccc1C3=O [idarubicin],(+) ((+) means an increase of about 5% to 80%),(+) ((+) means an increase of about 5% to 80%),(+) ((+) means an increase of about 5% to 80%),(+) ((+) means an increase of about 5% to 80%),(+) ((+) means an increase of about 5% to 80%),(++) ((++) means an increase of 80% to 500%),(++) ((++) means an increase of 80% to 500%)
Cc1ccc(NC(=O)c2ccc(CN3CCN(C)CC3)cc2)cc1Nc1nccc(-c2cccnc2)n1 [imatinib],(+) ((+) means an increase of about 5% to 80%),(+) ((+) means an increase of about 5% to 80%),(+) ((+) means an increase of about 5% to 80%),(+) ((+) means an increase of about 5% to 80%),(++) ((++) means an increase of 80% to 500%),(+) ((+) means an increase of about 5% to 80%),(+) ((+) means an increase of about 5% to 80%)
Cc1oncc1C(=O)Nc1ccc(C(F)(F)F)cc1 [leflunomide],(+) ((+) means an increase of about 5% to 80%),(+) ((+) means an increase of about 5% to 80%),(+) ((+) means an increase of about 5% to 80%),(+) ((+) means an increase of about 5% to 80%),(+) ((+) means an increase of about 5% to 80%),(+) ((+) means an increase of about 5% to 80%),(+) ((+) means an increase of about 5% to 80%)
N#Cc1ccc(C(c2ccc(C#N)cc2)n2cncn2)cc1 [letrozole],(+) ((+) means an increase of about 5% to 80%),(+) ((+) means an increase of about 5% to 80%),(+) ((+) means an increase of about 5% to 80%),(+) ((+) means an increase of about 5% to 80%),(+) ((+) means an increase of about 5% to 80%),(+) ((+) means an increase of about 5% to 80%),(+) ((+) means an increase of about 5% to 80%)
Cc1onc(-c2ccccc2)c1C(=O)N[C@@H]1C(=O)N2[C@@H]1SC(C)(C)[C@@H]2C(=O)O [oxacillin],(++) ((++) means an increase of 80% to 500%),(+) ((+) means an increase of about 5% to 80%),(+) ((+) means an increase of about 5% to 80%),(+) ((+) means an increase of about 5% to 80%),(++) ((++) means an increase of 80% to 500%),(+) ((+) means an increase of about 5% to 80%),(+) ((+) means an increase of about 5% to 80%)
CC(=O)O[C@H]1C(=O)[C@@]2(C)[C@H]([C@H](OC(=O)c3ccccc3)[C@]3(O)C[C@H](OC(=O)[C@H](O)[C@@H](NC(=O)c4ccccc4)c4ccccc4)C(C)=C1C3(C)C)[C@]1(OC(C)=O)CO[C@@H]1C[C@@H]2O [paclitaxel],(+) ((+) means an increase of about 5% to 80%),(+) ((+) means an increase of about 5% to 80%),(+) ((+) means an increase of about 5% to 80%),(++) ((++) means an increase of 80% to 500%),(+) ((+) means an increase of about 5% to 80%),(+) ((+) means an increase of about 5% to 80%),(+) ((+) means an increase of about 5% to 80%)
CO[C@H]1C[C@@H]2CC[C@@H](C)[C@@](O)(O2)C(=O)C(=O)N2CCCC[C@H]2C(=O)O[C@H]([C@H](C)C[C@@H]2CC[C@@H](O)[C@H](OC)C2)CC(=O)[C@H](C)/C=C(\C)[C@@H](O)[C@@H](OC)C(=O)[C@H](C)C[C@H](C)/C=C/C=C/C=C/1C [rapamycin],(+) ((+) means an increase of about 5% to 80%),(++) ((++) means an increase of 80% to 500%),(+) ((+) means an increase of about 5% to 80%),(++) ((++) means an increase of 80% to 500%),(+) ((+) means an increase of about 5% to 80%),(+) ((+) means an increase of about 5% to 80%),(+) ((+) means an increase of about 5% to 80%)
CCC(C)(C)C(=O)O[C@H]1C[C@@H](C)C=C2C=C[C@H](C)[C@H](CC[C@@H]3C[C@@H](O)CC(=O)O3)[C@H]21 [simvastatin],(+) ((+) means an increase of about 5% to 80%),(+) ((+) means an increase of about 5% to 80%),(+) ((+) means an increase of about 5% to 80%),(+) ((+) means an increase of about 5% to 80%),(+) ((+) means an increase of about 5% to 80%),(+) ((+) means an increase of about 5% to 80%),(++) ((++) means an increase of 80% to 500%)
CN(C)[C@@H]1C(O)=C(C(N)=O)C(=O)[C@@]2(O)C(O)=C3C(=O)c4c(O)cccc4[C@@](C)(O)[C@H]3C[C@@H]12 [tetracycline],(++) ((++) means an increase of 80% to 500%),(++) ((++) means an increase of 80% to 500%),(+) ((+) means an increase of about 5% to 80%),(+) ((+) means an increase of about 5% to 80%),(+) ((+) means an increase of about 5% to 80%),(+) ((+) means an increase of about 5% to 80%),(+) ((+) means an increase of about 5% to 80%)
NC[C@H]1O[C@H](O[C@H]2[C@H](O)[C@@H](O[C@H]3O[C@H](CO)[C@@H](O)[C@H](N)[C@H]3O)[C@H](N)C[C@@H]2N)[C@H](N)C[C@@H]1O [tobramycin],(+) ((+) means an increase of about 5% to 80%),(+) ((+) means an increase of about 5% to 80%),(+) ((+) means an increase of about 5% to 80%),(+) ((+) means an increase of about 5% to 80%),(+) ((+) means an increase of about 5% to 80%),(+) ((+) means an increase of about 5% to 80%),(+) ((+) means an increase of about 5% to 80%)
